In ChEMBL document CHEMBL4004885, “Synthesis and biological activity of salinomycin-hydroxamic acid conjugates” (Bioorg Med Chem Lett, 2017):
The source made the active and inactive calls. No cut-off for these calls is given here.

Assays:
HT-29 [1] = assay: Cytotoxicity against human HT-29 cells assessed as decrease in cell proliferation after 48 hrs by MTT assay; format: functional, cell-based; conditions: HT-29, 48 h
HGC-27 [2] = assay: Cytotoxicity against human HGC27 cells assessed as decrease in cell proliferation after 48 hrs by MTT assay; format: functional, cell-based; conditions: HGC-27, 48 h
MDA-MB-231 [3] = assay: Cytotoxicity against human MDA-MB-231 cells assessed as decrease in cell proliferation after 48 hrs by MTT assay; format: functional, cell-based; conditions: MDA-MB-231, 48 h
HT-29 [4] = assay: Potency index, ratio of salinomycin IC50 to test compound IC50 for human HT-29 cells; format: functional
HGC-27 [5] = assay: Potency index, ratio of salinomycin IC50 to test compound IC50 for human HGC27 cells; format: functional
MDA-MB-231 [6] = assay: Potency index, ratio of salinomycin IC50 to test compound IC50 for human MDA-MB-231 cells; format: functional
[7] = Chemical stability in RPMI1640 medium at 10 mg after 72 hrs by 1H NMR method; format: physicochemical
MDA-MB-231 [8] = assay: Cytotoxicity against human MDA-MB-231 cells assessed as decrease in cell proliferation at 10 uM after 48 hrs in presence of salinomycin by MTT assay; format: functional, cell-based
MDA-MB-231 [9] = assay: Cytotoxicity against human MDA-MB-231 cells assessed as decrease in cell proliferation after 48 hrs in presence of salinomycin by MTT assay; format: functional, cell-based; conditions: MDA-MB-231, 48 h

SMILES | IC50 (HT-29 [1]) [nM] | IC50 (HGC-27 [2]) [nM] | IC50 (MDA-MB-231 [3]) [nM] | Ratio IC50 (HT-29 [4]) | Ratio IC50 (HGC-27 [5]) | Ratio IC50 (MDA-MB-231 [6]) | Stability [7] | Activity (MDA-MB-231 [8]) | IC50 (MDA-MB-231 [9]) [nM]
CCCCCCCC(=O)NOC(=O)[C@H](CC)[C@H]1CC[C@H](C)[C@H]([C@@H](C)[C@H](O)[C@H](C)C(=O)[C@H](CC)[C@H]2O[C@]3(C=C[C@@H](O)[C@]4(CC[C@@](C)([C@H]5CC[C@](O)(CC)[C@H](C)O5)O4)O3)[C@H](C)C[C@@H]2C)O1 | 960 | 1350 | 2690 | 1.5 - 2.5 | 1.5 - 2.5 | 1.5 - 2.5 | Stable |  | 
O=C(Cc1ccccc1)NO [PHENYLACETOHYDROXAMIC ACID] |  |  |  |  |  |  |  | inactive | 9720
CC[C@@H](C(=O)[C@@H](C)[C@@H](O)[C@H](C)[C@@H]1O[C@@H]([C@@H](CC)C(=O)ONC(=O)Cc2ccccc2)CC[C@@H]1C)[C@H]1O[C@]2(C=C[C@@H](O)[C@]3(CC[C@@](C)([C@H]4CC[C@](O)(CC)[C@H](C)O4)O3)O2)[C@H](C)C[C@@H]1C | 900 | 1290 | 1010 | 1.5 - 7 | 1.5 - 7 | 1.5 - 7 | Stable |  | 
CC[C@@H](C(=O)[C@@H](C)[C@@H](O)[C@H](C)[C@@H]1O[C@@H]([C@@H](CC)C(=O)O)CC[C@@H]1C)[C@H]1O[C@]2(C=C[C@@H](O)[C@]3(CC[C@@](C)([C@H]4CC[C@](O)(CC)[C@H](C)O4)O3)O2)[C@H](C)C[C@@H]1C [SALINOMYCIN] | 1430 | 2570 | 6530 to 6910 |  |  |  | Stable |  | 
CC[C@@H](C(=O)[C@@H](C)[C@@H](O)[C@H](C)[C@@H]1O[C@@H]([C@@H](CC)C(=O)ONC(=O)CCc2ccccc2)CC[C@@H]1C)[C@H]1O[C@]2(C=C[C@@H](O)[C@]3(CC[C@@](C)([C@H]4CC[C@](O)(CC)[C@H](C)O4)O3)O2)[C@H](C)C[C@@H]1C | 800 | 1050 | 1890 | 1.5 - 7 | 1.5 - 7 | 1.5 - 7 | Stable |  | 
C/C=C/C=C/C(=O)NOC(=O)[C@H](CC)[C@H]1CC[C@H](C)[C@H]([C@@H](C)[C@H](O)[C@H](C)C(=O)[C@H](CC)[C@H]2O[C@]3(C=C[C@@H](O)[C@]4(CC[C@@](C)([C@H]5CC[C@](O)(CC)[C@H](C)O5)O4)O3)[C@H](C)C[C@@H]2C)O1 | 2310 | 2630 | 3820 |  |  |  | Stable |  | 
CC[C@@H](C(=O)[C@@H](C)[C@@H](O)[C@H](C)[C@@H]1O[C@@H]([C@@H](CC)C(=O)ONC(=O)c2ccccc2)CC[C@@H]1C)[C@H]1O[C@]2(C=C[C@@H](O)[C@]3(CC[C@@](C)([C@H]4CC[C@](O)(CC)[C@H](C)O4)O3)O2)[C@H](C)C[C@@H]1C | 850 | 920 | 2260 | 1.5 - 7 | 1.5 - 7 | 1.5 - 7 | Stable |  | 
CC[C@@H](C(=O)[C@@H](C)[C@@H](O)[C@H](C)[C@@H]1O[C@@H]([C@@H](CC)C(=O)ONC(=O)c2ccccc2O)CC[C@@H]1C)[C@H]1O[C@]2(C=C[C@@H](O)[C@]3(CC[C@@](C)([C@H]4CC[C@](O)(CC)[C@H](C)O4)O3)O2)[C@H](C)C[C@@H]1C | 880 | 920 | 2780 |  |  |  | Stable |  | 
CC[C@@H](C(=O)[C@@H](C)[C@@H](O)[C@H](C)[C@@H]1O[C@@H]([C@@H](CC)C(=O)ONC(=O)c2ccc(Br)cc2)CC[C@@H]1C)[C@H]1O[C@]2(C=C[C@@H](O)[C@]3(CC[C@@](C)([C@H]4CC[C@](O)(CC)[C@H](C)O4)O3)O2)[C@H](C)C[C@@H]1C | 700 | 510 | 940 |  | 7 | 7 | Stable |  | 
CC[C@@H](C(=O)[C@@H](C)[C@@H](O)[C@H](C)[C@@H]1O[C@@H]([C@@H](CC)C(=O)ONC(=O)Cc2ccccc2Br)CC[C@@H]1C)[C@H]1O[C@]2(C=C[C@@H](O)[C@]3(CC[C@@](C)([C@H]4CC[C@](O)(CC)[C@H](C)O4)O3)O2)[C@H](C)C[C@@H]1C | 800 | 760 | 930 |  |  |  | Stable |  | 
CC[C@@H](C(=O)[C@@H](C)[C@@H](O)[C@H](C)[C@@H]1O[C@@H]([C@@H](CC)C(=O)ONC(=O)/C=C/c2ccccc2)CC[C@@H]1C)[C@H]1O[C@]2(C=C[C@@H](O)[C@]3(CC[C@@](C)([C@H]4CC[C@](O)(CC)[C@H](C)O4)O3)O2)[C@H](C)C[C@@H]1C | 7230 | 7270 | 9640 |  |  |  | Stable |  | 
CC(=O)O[C@H]1C(=O)[C@@]2(C)[C@H]([C@H](OC(=O)c3ccccc3)[C@]3(O)C[C@H](OC(=O)[C@H](O)[C@@H](NC(=O)c4ccccc4)c4ccccc4)C(C)=C1C3(C)C)[C@]1(OC(C)=O)CO[C@@H]1C[C@@H]2O [PACLITAXEL] |  |  | 80 |  |  |  |  |  | 
O=C(/C=C/c1ccccc1)NO |  |  |  |  |  |  |  | inactive | 8980
CC[C@@H](C(=O)[C@@H](C)[C@@H](O)[C@H](C)[C@@H]1O[C@@H]([C@@H](CC)C(=O)ONC(C)=O)CC[C@@H]1C)[C@H]1O[C@]2(C=C[C@@H](O)[C@]3(CC[C@@](C)([C@H]4CC[C@](O)(CC)[C@H](C)O4)O3)O2)[C@H](C)C[C@@H]1C | 2320 | 2250 | 3790 |  |  |  | Stable |  | 
O=C(Cc1ccccc1Br)NO |  |  |  |  |  |  |  | inactive | > 10000
O=C(NO)c1ccc(Br)cc1 |  |  |  |  |  |  |  | inactive | > 10000
O=C(NO)c1ccccc1 [BENZOHYDROXAMATE] |  |  |  |  |  |  |  | inactive | 9850
C/C=C/C=C/C(=O)NO |  |  |  |  |  |  |  | inactive | 7890
